Assay results: patent US5654420A, “Process for preparing 2'-cyano pyrimidine nucleoside compounds” (Sankyo Company, Limited, priority 1990, dated 1997)
≈ marks a conversion by molar mass, not a printed value. Structures can show the parent of a compound that is named as a salt.

Tested on: KB human oral epidermoid carcinoma
Assay: Antitumor activity in vitro (MTT method, 72 h), KB
Format: cell-based
Conditions: 37° C., read-out: IC50 (concentration necessary for inhibiting proliferation of the cells to 50%)
Protocol: Antitumor activity was determined in vitro using a human cancer strain. As the culture medium for the cancer cell, an RPMI1640 solution containing 10% of […] bovine fetal serum 50 μg/ml of kanamycin was used. Cancer cells (1×10^4 cells/ml) were innoculated to 1 ml of the culture liquids containing samples at different concentrations, respectively, and cultured in a carbon dioxide gas incubator at 37° C. for 72 hours.
Viability of the cancer cells was determined by MTT method in which the amount of living cells in the culture liquids containing the sample and that in culture liquids containing no sample (blank group) are measured based on the intensity of the visible light using [3-(4,5-dimethylthiazol-2-yl)-2,5-diphenyl-tetrazolium bromide] which develops color in proportion to the number of living cells. The intensity of antitumor activity was expressed by IC50 value (concentration (μg/ml) necessary for inhibiting proliferation of the cells to 50%). The IC50 value was obtained from a graph illustrating the relationship between % proliferation of the cancer cells in the sample containing group (% relative to the blank group) and the concentration (logalithmic) of the sample.
KB: human oral epidermoid carcinoma

IC50 [mg/L] | SMILES
15 | N#C[C@H]1[C@H](O)[C@@H](CO)O[C@H]1n1ccc(N)nc1=O [Example 9, 1-(2'-Cyano-2'-deoxy-β-D-arabinofuranosyl)cytosine monohydrochloride]
7.6 (≈ 30.5 µM) | Cc1cn([C@@H]2O[C@H](CO)C=C2C#N)c(=O)[nH]c1=O [Example 12, 1-(2'-Cyano-2',3'-deoxy-2',3'-didehydro-β-D-ribofuranosyl)thymine]
